Measured values taken from US20230081034A1 (SHANGHAI BENEMAE PHARMACEUTICAL CORPORATION, priority 2020, published 2023).
Entries after “also recorded” stand apart in the source; their conditions may differ.

Assays:
[1] = test system: obese and overweight patients with type 2 diabetes; experiment: Beinaglutide dosing regimen (continuous subcutaneous pump plus pre-meal doses), alone or with metformin / insulin glargine, one month; assay type: in vivo, human
Method: The beinaglutide dosing regimen included 1) a continuous subcutaneous administration of beinaglutide at 12.5 μg/h (300 μg/d) via a subcutaneous pump, 2) a one-time subcutaneous administration of beinaglutide at a dose of 100 μg 5 min before each of the three meals a day, and 3) optional administration of insulin glargine and/or metformin.
The patients treated were overweight/obesity in short disease course of type 2 diabetes. Two patients were female, and four patients were male. The patients were 30 to 55 years old with a course of disease between 0 and 5 years with glycated hemoglobin between 9% and 12%, and BMI between 26 and 30 kg/m^2.
Three patients were treated with beinaglutide monotherapy. Three patients were treated with a combinational therapy of beinaglutide and one or two third active ingredients (metformin, or metformin and glargine). Glycated hemoglobin (HbA1c) and weight were measured.
The patients were treated with the beinaglutide dosing regimen described herein, either alone or in combination with one or more third active ingredients. Some patients were treated with insulin (daily dosage of 0.5 u/kg) pump treatment alone or in combination with metformin (0.5 g tid) for a week right before starting the beinaglutide treatment.

[2] = test system: patients with type 2 diabetes; experiment: Randomized, double-blind, placebo-controlled clinical trial: subcutaneous beinaglutide before meals in combination with oral metformin, 12-week treatment; assay type: in vivo, human
Method: The inclusion criteria (if any) are as follows: Type 2 diabetic patients that met the World Health Organization's diagnostic criteria for type 2 diabetes (WHO, 1999) who received oral metformin treatment at dosages 1,000 mg/d that had stabilized for at least 3 months without treatment-related adverse events (e.g., vomiting) and voluntarily signed informed consent and with the following criteria:
In a randomized, double-blind, placebo-controlled clinical trial, 42 patients with type 2 diabetes treated with metformin monotherapy were randomly divided into a treatment group and a control group, with 21 cases in each group. All patients received metformin (Glucophage, purchased from Bristol-Myers Squibb) with original dosages. 200 μg of beinaglutide (from Benemae, treatment group) or a placebo (Benemae, control group) were administered to patients by one-time subcutaneous injection before each of three meals (600 μg/d) and followed up after a 12-week treatment.
Glycated hemoglobin (HbA1c), fasting blood glucose, 2 h postprandial blood glucose, BMI, and other effectiveness indicators were measured.

[3] = Patient 2: insulin (0.5 u/kg) 1 week, then beinaglutide regimen + metformin (0.5 g tid) 1 month
[4] = treatment group, after 12 weeks beinaglutide 600 μg/d s.c. + metformin

## His-Ala-Glu-Gly-Thr-Phe-Thr-Ser-Asp-Val-Ser-Ser-Tyr-Leu-Glu-Gly-Gln-Ala-Ala-Lys-Glu-Phe-Ile-Ala-Trp-Leu-Val-Lys-Gly-Arg [beinaglutide]
[1]; Patient 1, baseline
  Body weight pre-treatment: 61 kg
  HbA1c pre-treatment: 9.4%
[1]; Patient 1: insulin (0.5 u/kg) + metformin (0.5 g tid) 1 week, then beinaglutide monotherapy (12.5 μg/h continuous s.c. + 100 μg before each of three meals) 1 month
  Body weight post-treatment: 57.5 kg
[1]; Patient 2, baseline
  Body weight pre-treatment: 99 kg
  HbA1c pre-treatment: 8.8%
[1]; [3]
  Body weight post-treatment: 93 kg
  HbA1c post-treatment: 6.3%
[1]; Patient 3, baseline
  Body weight pre-treatment: 88 kg
  HbA1c pre-treatment: 12.3%
[1]; Patient 3: insulin (0.5 u/kg) 1 week, then beinaglutide regimen + metformin (0.5 g tid) 1 month
  Body weight post-treatment: 83 kg
[1]; Patient 4, baseline
  Body weight pre-treatment: 80 kg
  HbA1c pre-treatment: 9.3%
[1]; Patient 4: insulin (0.5 u/kg) 1 week, then beinaglutide regimen + metformin (0.5 g tid) + insulin glargine (16 u s.c. before bed) 1 month
  Body weight post-treatment: 73 kg
[1]; Patient 5, baseline
  Body weight pre-treatment: 80 kg
  HbA1c pre-treatment: 7.3%
[1]; Patient 5: beinaglutide monotherapy (12.5 μg/h continuous s.c. + 100 μg before each of three meals) 1 month
  Body weight post-treatment: 77 kg
[1]; Patient 6, baseline
  Body weight pre-treatment: 85 kg
  HbA1c pre-treatment: 9.7%
[1]; Patient 6: insulin (0.5 u/kg) 1 week, then beinaglutide monotherapy (0.6 mg/d) 1 month
  Body weight post-treatment: 78 kg
[1]; six patients, continuous 300 μg/d + 100 μg tid before meal, alone or with metformin or metformin and insulin glargine, one month
  Overall outcome on body weight and HbA1c: significant weight loss and/or HbA1c decrease; also recorded: achieved decrease in HbA1c and/or body weight
[2]; 12 weeks, P>0.05
  BMI, treatment group versus control group: no statistic differences between the two groups
[2]; 2 h postprandial, treatment group, beinaglutide 600 μg/d s.c. + metformin, 12 weeks, P<0.01
  Postprandial blood glucose decreased by: 4.18 mmol/L
[2]; treatment group (21 cases), metformin at original dosage + beinaglutide 200 μg s.c. before each of three meals (600 μg/d), 12 weeks, P<0.01
  HbA1c decreased by: 1.17%
[2]; treatment group vs placebo + metformin, 12 weeks, P<0.05
  HbA1c and fasting blood glucose post-treatment versus control group: even more significant decrease comparing with control group
[2]; treatment group, 12 weeks beinaglutide 600 μg/d + metformin
  HbA1c and fasting blood glucose post-treatment versus pre-treatment: significant decrease comparing with the pre-treatment indicators
[2]; treatment group, 12 weeks, P<0.05 (control group also decreased)
  BMI change after treatment: significant decrease in BMI
[2]; treatment group, after 12 weeks beinaglutide 200 μg s.c. before each of three meals + metformin
  HbA1c post-treatment: 6.8%
[2]; [4]
  Fasting blood glucose post-treatment: 7.45 mmol/L
  Postprandial blood glucose post-treatment: 11.02 mmol/L
[2]; treatment group, baseline
  Fasting blood glucose pre-treatment: 9.43 mmol/L
  Postprandial blood glucose pre-treatment: 15.2 mmol/L
[2]; treatment group, baseline before beinaglutide 600 μg/d + metformin
  HbA1c pre-treatment: 7.97%
[2]; treatment group, beinaglutide 600 μg/d s.c. + metformin, 12 weeks
  Fasting blood glucose decreased by: 1.98 mmol/L
